This note sets out measurements from patent US10752615B2, “Spirocyclic containing compounds and pharmaceutical uses thereof” (GB005, Inc., priority 2016, dated 2020).

The subject of test [1] is PBMC stimulated with anti-CD3 and anti-CD28 antibodies. The test can be described thus: CD3/CD28 mediated PBMC proliferation assay. The note with it: Homo sapiens, 72 h, read-out: CD3/CD28 PMBC proliferation IC50 (nM).
Procedure: Individual wells of 96 well tissue culture plates were coated with 50 μL of 5 μg/mL anti-CD3 (OKT3, eBiosciences) overnight at 4° C. Human blood was collected in EDTA containing vacutainer tubes. […] The cells were placed in a humidified 37° C. incubator for 72 hours. Controls included unstimulated cells and media alone.
Test [2] relates to experimental autoimmune encephalomyelitis (EAE). Description: Experimental autoimmune encephalomyelitis (EAE) model of multiple sclerosis. The class given is in vivo, female C57BL/6 mice. The conditions noted are these: oral gavage once daily, 30 mg/kg. How it is done:
TEC kinases play important roles in immune cells and pathogenic microglia in multiple sclerosis. The efficacy of compound 16 was evaluated in experimental autoimmune encephalomyelitis (EAE), a mouse model of multiple sclerosis. […] A group of ten naïve C57BL/6 mice was maintained as a negative control. […] Mouse is not alert. 5.0—Death or severe paralysis resulting in euthanasia.

In another test the target is BTK (Homo sapiens (Human), UniProt Q06187). The test can be described thus: Kinase inhibition assay (Nanosyn, microfluidic detection), BTK. The format is biochemical. The note with it: 1 mM ATP, 3 hours at 25° C.
Chain of BTK (Q06187 whole entry): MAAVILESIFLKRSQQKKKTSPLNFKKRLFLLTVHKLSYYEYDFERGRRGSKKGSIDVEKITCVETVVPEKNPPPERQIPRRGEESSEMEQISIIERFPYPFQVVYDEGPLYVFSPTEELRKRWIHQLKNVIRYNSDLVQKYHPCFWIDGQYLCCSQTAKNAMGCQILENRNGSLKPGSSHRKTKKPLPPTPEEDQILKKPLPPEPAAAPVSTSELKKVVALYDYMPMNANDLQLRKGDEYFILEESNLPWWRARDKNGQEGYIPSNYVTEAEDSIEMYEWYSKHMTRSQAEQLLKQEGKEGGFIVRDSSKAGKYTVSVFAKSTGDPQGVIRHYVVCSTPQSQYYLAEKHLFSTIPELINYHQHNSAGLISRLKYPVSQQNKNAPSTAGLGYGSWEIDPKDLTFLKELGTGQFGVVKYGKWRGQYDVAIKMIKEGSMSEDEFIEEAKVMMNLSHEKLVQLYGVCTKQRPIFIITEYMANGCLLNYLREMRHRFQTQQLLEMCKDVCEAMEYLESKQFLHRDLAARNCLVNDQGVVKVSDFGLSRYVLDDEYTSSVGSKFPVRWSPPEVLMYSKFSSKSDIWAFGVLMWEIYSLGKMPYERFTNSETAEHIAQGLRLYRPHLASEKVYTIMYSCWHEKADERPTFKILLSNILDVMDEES
The target of another test is TXK (Homo sapiens (Human), UniProt P42681). Description: Kinase inhibition assay (Nanosyn, microfluidic detection), TXK. The class given is biochemical. The conditions noted are these: 1 mM ATP, 3 hours at 25° C.
Chain of TXK (P42681 whole entry): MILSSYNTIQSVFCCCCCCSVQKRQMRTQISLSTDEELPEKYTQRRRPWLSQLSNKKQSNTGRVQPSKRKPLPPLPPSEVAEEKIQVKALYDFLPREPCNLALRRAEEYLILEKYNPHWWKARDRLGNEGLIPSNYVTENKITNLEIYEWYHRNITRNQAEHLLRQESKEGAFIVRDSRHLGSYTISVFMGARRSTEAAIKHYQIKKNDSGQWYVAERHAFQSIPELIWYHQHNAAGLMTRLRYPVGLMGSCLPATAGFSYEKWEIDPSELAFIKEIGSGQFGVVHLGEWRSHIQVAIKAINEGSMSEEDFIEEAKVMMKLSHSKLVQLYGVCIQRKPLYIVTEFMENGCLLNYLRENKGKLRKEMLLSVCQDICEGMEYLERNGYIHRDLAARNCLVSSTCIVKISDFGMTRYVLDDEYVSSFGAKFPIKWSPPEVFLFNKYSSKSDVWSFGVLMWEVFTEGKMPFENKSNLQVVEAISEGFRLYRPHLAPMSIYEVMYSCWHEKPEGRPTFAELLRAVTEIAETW

Consider `C=CC(=O)N1CC[C@]2(C1)C[C@@H](n1c(NC(=O)c3cnc(C(C)C)s3)nc3cc(CN[C@@H](C)C(C)(C)C)ccc31)C2` [Compound 11], for which, in test [1], the IC50 is above 300 nM. Still for that read-out and setting: with `C=CC(=O)N1CCC2(CC1)CC(n1c(NC(=O)c3ccc(C(F)F)s3)nc3cc(CN[C@@H](C)C(C)(C)C)ccc31)C2` [Compound 12] the figure was above 300 nM. As to `C=CC(=O)N1CC[C@]2(C1)C[C@H](n1c(NC(=O)c3ccc(-c4cnco4)s3)nc3ccccc31)C2` [Compound 16], the “disease severity (EAE score)” value in test [2] (in PEG 400, treated after onset of symptoms, mice) was “greatly attenuated”. Also, the “symptoms of neurological deficit” value in test [2] (versus vehicle treated animals that rapidly progressed) was “minimal symptoms”. This molecule also showed an IC50 against BTK of 940 pM. For the molecule `C=CC(=O)N1CC[C@]2(C1)C[C@H](n1c(NC(=O)c3ccno3)nc3ccccc31)C2` [Compound 45], the IC50 in test [1] was 60.3 nM.

In the case of `C=CC(=O)N1CC[C@]2(C1)C[C@@H](n1c(NC(=O)c3ccc(-c4cnco4)s3)nc3c(Cl)cccc31)C2` [Compound 72], in test [1], the IC50 is above 300 nM. Take `C=CC(=O)N1CC[C@]2(C1)C[C@H](n1c(NC(=O)c3cc4c(s3)CCCC4)nc3ccccc31)C2` [Compound 80]: the IC50 in test [1] was above 300 nM. As to `C=CC(=O)N1CC[C@]2(C1)C[C@H](n1c(NC(=O)c3cc4ccccc4s3)nc3ccccc31)C2` [Compound 81], the IC50 in test [1] was above 300 nM. As for `C=CC(=O)N1CC[C@]2(C1)C[C@@H](n1c(NC(=O)c3ccc(-c4cnco4)s3)nc3c(OC)cccc31)C2` [Compound 88], in test [1], the IC50 is above 300 nM.

On to `C=CC(=O)N1CC[C@]2(C1)C[C@H](n1c(NC(=O)c3ccc(C(=O)O)s3)nc3ccccc31)C2` [Compound 100], for which, in test [1], the IC50 is above 300 nM. On to `C=CC(=O)N1CC[C@]2(C1)C[C@H](n1c(NC(=O)c3ccc(NC(=O)C4CCOCC4)s3)nc3ccccc31)C2` [Compound 112], for which the IC50 in test [1] was above 300 nM. With `C=CC(=O)N1CC[C@]2(C1)C[C@H](n1c(NC(=O)c3ccc(-c4ccnc(CO)c4)s3)nc3ccccc31)C2` [Compound 146], the IC50 against BTK was 570 pM; against TXK it was 220 pM.

With `C=CC(=O)N1CC[C@]2(C1)C[C@H](n1c(NC(=O)c3ccc(-c4ccnc(C)c4)s3)nc3ccccc31)C2` [Compound 147], the IC50 at BTK was 410 pM; at TXK, 210 pM.

With `C=CC(=O)N1CC[C@]2(C1)C[C@H](n1c(NC(=O)c3ccc(-c4c[nH]nc4C)s3)nc3ccccc31)C2` [Compound 156], the IC50 against BTK is 700 pM; against TXK it was 240 pM.
